Assay results as given in patent US11267852B2, “Cell lines for screening odorant and aroma receptors” (Firmenich SA, priority 2015, dated 2022).

How the values were obtained:
[1] = molecular target: T1, OR11A1 (Homo sapiens, UniProt Q9GZK7); assay: cell-based odorant assay, cAMP increase (HTRF), OR11A1
T1 construct: expressed in transfected cells
T1 sequence (Q9GZK7 1-315): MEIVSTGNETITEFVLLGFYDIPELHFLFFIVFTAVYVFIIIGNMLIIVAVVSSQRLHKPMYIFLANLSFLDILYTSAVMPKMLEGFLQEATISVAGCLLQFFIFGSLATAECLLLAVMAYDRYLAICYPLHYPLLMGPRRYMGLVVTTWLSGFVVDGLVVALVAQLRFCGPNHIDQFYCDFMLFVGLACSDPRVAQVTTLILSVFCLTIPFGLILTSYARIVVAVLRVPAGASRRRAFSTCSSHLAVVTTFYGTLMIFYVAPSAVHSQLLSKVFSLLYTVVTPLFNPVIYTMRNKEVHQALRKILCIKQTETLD
Experimental: (§1) Functional dose-response experiments were performed in order to evaluate the level of functional enhancement of activity of odorant receptors in the modified cell line. Odorant receptors were modified at their N-terminus with short polypeptide sequences or tags [e.g. Flag (SEQ ID NO: 15), Rho (SEQ ID NO: 17; 20 first amino acids of the bovine rhodopsin receptor), or Lucy (SEQ ID NO: 19)], transiently expressed in WT or modified HEK293T cells, and stimulated with odorant compounds to determine the activity of the receptors. FIGS. 7 and 8) Using a cell-based odorant binding assay, the activity of Olfr741 (SEQ ID NO: 4) and Olfr742 (SEQ ID NO: 6) to indole was tested in the engineered RTP1 cell line and compared to HEK293T lacking RTP1 protein expression. Odorant receptors were transfected into both cell lines and exposed to increasing concentrations of indole. Odorant-induced activity was detected by measuring the level of cAMP increase in the cytosol using an HTRF based kit (CisBio, cAMP dynamic 2 kit, cat #62AM4PEJ). FIGS. 9 and 10) Using the same cell-based odorant binding assay, the activity of Olfr96 (SEQ ID NO: 8) and OR11A1 (SEQ ID NO: 10) to vulcanolide was tested in the engineered RTP1 expressing cell line and compared to HEK293T lacking RTP1 protein expression. The activity of Olfr740 (SEQ ID NO: 12) to indole was also tested in both cellular backgrounds. […]

[2] = tested on: Olfr96; assay: cell-based odorant assay, cAMP increase (HTRF), Olfr96; parameters: species or system mouse
Experimental: as §1

[3] = molecular target: T2, OR1A1 (Homo sapiens, UniProt Q9P1Q5); assay: cell-based odorant assay, cAMP increase (HTRF), OR1A1; conditions: modified RTP1 HEK293T cell line compared to unmodified control cell line
T2 construct: expressed in transfected cells
T2 sequence (Q9P1Q5 1-309): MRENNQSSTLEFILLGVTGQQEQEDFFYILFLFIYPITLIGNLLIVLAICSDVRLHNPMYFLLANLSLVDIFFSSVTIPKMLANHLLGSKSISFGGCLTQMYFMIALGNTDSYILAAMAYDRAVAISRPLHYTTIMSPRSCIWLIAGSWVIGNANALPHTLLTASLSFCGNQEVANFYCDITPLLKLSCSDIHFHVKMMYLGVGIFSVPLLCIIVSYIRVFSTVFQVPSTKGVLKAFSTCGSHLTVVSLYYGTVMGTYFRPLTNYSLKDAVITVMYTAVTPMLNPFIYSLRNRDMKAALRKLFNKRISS

[4] = tested on: Olfr740; assay: cell-based odorant assay, cAMP increase (HTRF), Olfr740; parameters: species or system mouse
Experimental: as §1

[5] = tested on: Olfr741; assay: cell-based odorant assay, cAMP increase (HTRF), Olfr741; parameters: species or system mouse
Experimental: as §1

[6] = tested on: Olfr742; assay: cell-based odorant assay, cAMP increase (HTRF), Olfr742; parameters: species or system mouse
Experimental: as §1

[7] = modified RTP1 HEK293T cell line, increasing concentrations
[8] = unmodified control HEK293T lacking RTP1 expression

Cc1cc2c(cc1C=O)C(C)(C)[C@@H](C)[C@H](C)C2(C)C [vulcanolide]
receptor activity (cAMP increase), dose-response [1, 7]: dose-dependent increase of receptor activity | receptor activity (cAMP increase), dose-response [1, 8]: not in the unmodified control cell line | receptor activity (cAMP increase), dose-response [2, 7]: dose-dependent increase of receptor activity | receptor activity (cAMP increase), dose-response [2, 8]: not in the unmodified control cell line

C=C(C)C1CC=C(C)C(=O)C1 (stereo not drawn) [carvone-(−)]
receptor activity (cAMP increase), dose-response [3]: more potent dose-dependent increase of receptor activity

c1ccc2[nH]ccc2c1 [indole]
receptor activity (cAMP increase), dose-response [4, 7]: dose-dependent increase of receptor activity | receptor activity (cAMP increase), dose-response [4, 8]: not in the unmodified control cell line | receptor activity (cAMP increase), dose-response [5, 7]: dose-dependent increase of receptor activity | receptor activity (cAMP increase), dose-response [5, 8]: not in the unmodified control cell line | receptor activity (cAMP increase), dose-response [6, 7]: dose-dependent increase of receptor activity | receptor activity (cAMP increase), dose-response [6, 8]: not in the unmodified control cell line
